Measured values as given in publication PMC5342071, “A first generation inhibitor of human Greatwall kinase, enabled by structural and functional characterisation of a minimal kinase domain construct” (Oncotarget, 2016).

Assays:
Type in all cases: biochemical
ROCK1 = molecular target: T1, ROCK1 (Homo sapiens, UniProt Q13464); experiment: ROCK1 kinase assay (Promega); conditions: for IC50: ± S.D.
T1 construct: purchased Promega
Method: (§1) hGWLFL, 100 µl of lysate was diluted 5-fold with IP buffer and combined with 3 µl anti-Flag M2 magnetic Dynabeads [Sigma-Aldrich] overnight at 4 °C. After sequential washes with IP buffer, 1:1 mix of IP and kinase assay buffers and a final wash in kinase assay buffer, the beads were then used in the kinase assay. The reaction was stopped by adding SDS loading buffer and analysed by western blot: p-ENSA and GWL levels were detected using the anti-phospho(Ser67)-ENSA and anti-MASTL(GWL, Prestige) antibodies. Activity was measured as the p-ENSA/GWL ratio and % kinase activity was normalised to the DMSO control. All kinases assays were repeated thrice per assay condition and each point on the concentration-dependent response curves represents the mean ± 1 S.D.
(§2) PKA, ROCK1 and CDK2 kinase assays […]
(§3) Data were normalised against the AllStars negative control siRNA treated cells and values obtained from 3 – 5 biological replicates were reported as the mean ± 1 S.D.

CDK2 = molecular target: T2, CDK2 (Homo sapiens, UniProt P24941); experiment: CDK2 kinase assay, Histone H1 substrate, Kinase-Glo Max; conditions: for IC50: ± S.D.
T2 construct: made in house; host or cells: E. coli
Method: PKA, ROCK1 and CDK2 kinase assays
PKA and ROCK1 assays (Promega) were carried out according to the manufacturer’s protocols and CDK2 assays were carried out with Histone H1 as substrate (1 µg per 20 µl reaction) according to our Kinase-Glo Max assay. CDK2 was expressed and purified from E. coli as previously described (10). […]
as §3

PKA = molecular target: T3, PKA (Homo sapiens, UniProt P17612); experiment: PKA kinase assay (Promega); conditions: for IC50: ± S.D.
T3 construct: purchased Promega
Method: as §1, §2, §3

hGWL-KinDom = molecular target: T4, hGWL-KinDom (Homo sapiens, UniProt Q96GX5); experiment: Inhibitor screen of pooled library with hGWL-KinDom (Kinase-Glo Max); conditions: for inhibition at 10 µM: 10 μM screening concentration, ATP concentration = 45 μM; for Rank in inhibitor screen: rank by potency in the screen
T4 construct: that encoded amino acids (aa) 1-194 + ‘RTFC’ + 740-879 of hGWL; GST (rhinovirus 3C-protease cleavable) (N, cleaved yes); made in house; host or cells: E. coli Rosetta2(DE3)
Method: Two small-molecule compound libraries, enriched with pharmacophores known to interact with the ATP-binding site of protein kinases, were screened as a pooled library in a Kinase-GloMax luminescence-kinase assay. page 4: […] Dynabeads [Sigma-Aldrich] overnight at 4 °C. After sequential washes with IP buffer, 1:1 mix of IP and kinase assay buffers and a final wash in kinase assay buffer, the beads were then used in the kinase assay. The reaction was stopped by adding SDS loading buffer and analysed by western blot: p-ENSA and GWL levels were detected using the anti-phospho([…] and […], Prestige) antibodies. Activity was measured as the […] ratio and % kinase activity was normalised to the DMSO control. All kinases assays were repeated thrice per assay condition and each point on the concentration-dependent response curves represents the mean ± 1 S.D. PKA, ROCK1 and CDK2 kinase assays PKA and ROCK1 assays (Promega) were carried out according to the manufacturer's protocols and CDK2 assays were carried out with Histone H1 as substrate (1 µg per 20 µl reaction) according to our Kinase-Glo Max assay. CDK2 was expressed and purified from E. coli as previously described (10). Inhibitor Screens with hGWL-KinDom Two small-molecule compound libraries, enriched with pharmacophores known to interact with the ATP- binding site of protein kinases, were kindly provided by GlaxoSmithKline and Roche. We used this pooled library (582 compounds, 10 µM screening concentrations) in a Kinase-Glo Max luminescence kinase assay (11, 12) as part of a two-point screen against hGWL-KinDom kinase activity, using ATP at fixed concentrations of […] With STU as positive control at a […] 4A,B). […] rate = 5.8%; Supplementary Figure 4A). Molecular Docking - AutoDock AT13148 and GKI-1/2 were docked into the ATP-binding site of the hGWL-KinDom crystal structure (where the disordered C-helix was homology-modelled) using AutoDock 4.2.6. PDB format files for the ligand and kinase domain were pre-processed using AutoDock Tools 1.5.6 as described in Mohamed, et al. (13). (Figure 4 and Supplementary Figure 6A,B). Immunofluorescence and Time-lapse video microscopy 2.5 X 105 HeLa cells were plated onto glass coverslips in a 6-well plate, or 4-well µ-slides [Ibidi GmbH] were seeded with 5 X 104 cells and then transfected with Qiagen AllStars negative control or Hs_MASTL_6 siRNAs (14) using Lipofectamine RNAiMax [ThermoFisher Scientific]. Media was exchanged with fresh media the next day. 48 hours after siRNA treatment, only cells to be used for immunofluorescence (IF) were treated with nocodazole (200 ng/mL) and DMSO or GKI-1 at the indicated concentration. For IF, cells were fixed, stained with primary mouse anti-GWL and rabbit anti-p-ENSA antibodies, secondary Alexa Fluor 647-conjugated anti- rabbit and Alexa Fluor 488-conjugated anti-mouse antibodies, DAPI and mounted onto glass microscope slides using Diamond Antifade Mountant [Molecular Probes, ThermoFisher Scientific]. Quantitation of IF images was performed using the […]-Content Screening Station [Olympus Life Science] which acquired 220, 40x images per cover slip. Data were normalised against the AllStars negative control siRNA treated cells and values obtained from three biological replicates were reported as the mean ± 1 S.D. To assist with selecting mitotic cells, ScanR imaging software was utilised to gate for mitotic cells using the circularity factor and total DAPI parameters. To produce time-lapse videos, after 48 hours and cell treatment with DMSO or compound (cells were treated with GKI-1 for 4-h before image acquisition) cells plated in 4-well µ-slides were imaged every 5 minutes for 8.5 hours on an Olympus IX73 microscope, using a 40 x 0.95NA air objective, and recorded on an Orca-Flash 4.0 CMOS camera [Hamatsu]. The computer program Fiji (http://www.fiji.sc/Fiji) was used to generate videos from image sequence TIF files. Data were normalised against the AllStars negative control siRNA treated cells and […]

T4 sequence (Q96GX5 with tags, fused parts or gaps limits assumed): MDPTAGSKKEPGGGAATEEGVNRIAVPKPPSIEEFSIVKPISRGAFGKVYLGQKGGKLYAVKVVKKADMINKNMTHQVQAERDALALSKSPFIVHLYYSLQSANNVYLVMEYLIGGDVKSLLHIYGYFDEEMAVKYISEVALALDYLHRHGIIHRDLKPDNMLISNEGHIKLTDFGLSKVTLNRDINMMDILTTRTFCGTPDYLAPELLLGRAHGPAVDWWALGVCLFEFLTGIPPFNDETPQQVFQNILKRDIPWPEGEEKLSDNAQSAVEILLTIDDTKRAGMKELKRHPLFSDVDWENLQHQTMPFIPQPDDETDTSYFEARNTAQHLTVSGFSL
T1 sequence (Q13464 whole entry): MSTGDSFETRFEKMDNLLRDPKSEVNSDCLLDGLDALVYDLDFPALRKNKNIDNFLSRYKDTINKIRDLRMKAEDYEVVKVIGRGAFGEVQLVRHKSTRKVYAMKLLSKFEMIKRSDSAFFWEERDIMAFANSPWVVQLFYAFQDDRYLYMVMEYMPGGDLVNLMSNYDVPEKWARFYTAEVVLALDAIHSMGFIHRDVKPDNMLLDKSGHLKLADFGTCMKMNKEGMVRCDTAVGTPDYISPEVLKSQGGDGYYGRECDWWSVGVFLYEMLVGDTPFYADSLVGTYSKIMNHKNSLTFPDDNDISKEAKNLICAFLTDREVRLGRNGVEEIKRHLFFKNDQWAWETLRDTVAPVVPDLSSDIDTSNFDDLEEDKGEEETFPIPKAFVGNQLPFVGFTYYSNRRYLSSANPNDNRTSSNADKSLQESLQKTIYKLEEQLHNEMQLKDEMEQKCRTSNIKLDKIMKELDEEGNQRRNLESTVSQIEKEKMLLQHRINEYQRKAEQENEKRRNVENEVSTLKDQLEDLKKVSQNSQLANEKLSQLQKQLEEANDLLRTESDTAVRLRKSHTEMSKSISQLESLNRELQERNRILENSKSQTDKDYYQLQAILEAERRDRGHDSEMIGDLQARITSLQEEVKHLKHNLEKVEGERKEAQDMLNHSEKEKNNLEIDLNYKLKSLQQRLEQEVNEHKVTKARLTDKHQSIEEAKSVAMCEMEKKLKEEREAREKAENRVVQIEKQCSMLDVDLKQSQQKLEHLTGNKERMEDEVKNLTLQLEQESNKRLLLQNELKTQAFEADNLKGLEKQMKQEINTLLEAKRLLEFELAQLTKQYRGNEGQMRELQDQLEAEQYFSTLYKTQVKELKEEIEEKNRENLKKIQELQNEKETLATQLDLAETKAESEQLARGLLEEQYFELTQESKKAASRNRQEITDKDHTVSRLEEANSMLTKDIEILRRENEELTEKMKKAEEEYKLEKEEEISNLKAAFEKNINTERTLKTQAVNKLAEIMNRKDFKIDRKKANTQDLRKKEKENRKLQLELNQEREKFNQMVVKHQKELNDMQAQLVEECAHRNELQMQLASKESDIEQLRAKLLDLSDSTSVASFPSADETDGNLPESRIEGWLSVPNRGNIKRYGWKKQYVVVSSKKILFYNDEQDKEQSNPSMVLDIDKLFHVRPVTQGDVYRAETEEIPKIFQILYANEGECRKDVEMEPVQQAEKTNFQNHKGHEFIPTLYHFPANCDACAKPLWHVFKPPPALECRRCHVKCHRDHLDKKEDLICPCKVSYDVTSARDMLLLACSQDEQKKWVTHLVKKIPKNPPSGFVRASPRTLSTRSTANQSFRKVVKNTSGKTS

Row | SMILES | selectivity for hGWL^FL over ROCK1 (ROCK1) [fold] | IC50 (ROCK1) [µM] | inhibitory activity towards CDK2 (CDK2; concentrations up to 100 μM) | IC50 (CDK2) [µM] | selectivity for hGWL^FL over PKA (PKA) | IC50 (PKA) [µM] | inhibition at 10 µM (hGWL-KinDom) [%] | Rank in inhibitor screen (hGWL-KinDom)
1 | Clc1ccc(Nc2cccc(-c3cn[nH]c3)c2)cc1 [GKI-1, N-(4-chlorophenyl)-3-(1H-pyrazol-4-yl)aniline] | 2 | 11.3 ± 3.4 | no observable inhibitory activity | > 100 | greater than 8 fold | > 40 |  | 
2 | CN(C)CC#Cc1cccc(C(=O)c2cnn(-c3ccc(F)cc3)c2N)c1 [GRI-3] |  |  |  |  |  |  | 39.6 | 3
3 | CCN(CC)Cc1ccc(Nc2nccc(-c3cnn4ncccc34)n2)cc1 [GRI-4] |  | 21.6 ± 5.3 |  | 0.089 ± 0.003 |  | > 100 | 30.1 | 8
